# Read-outs that look alike come from different tables or passages of the source.
# Tests used:
# Gram-positive bacteria = assay: Geometric mean MIC and therapeutic index, Gram-positive bacteria; format: cell-based; details: Gram-positive bacteria
# How it was run: (§1)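 Overnight MH cultures were regrown and diluted to 5 × 10^5 CFU/mL, then exposed to peptides at 0.78–50 µg/mL final in MH or modified LYM broth following CLSI microdilution. MICs were combined into geometric means, and TI was computed as HC10 (human red blood cells) divided by GM.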
# S. aureus ATCC 25923 = system: S. aureus ATCC 25923
# How it was run: (§2)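 MICs came from CLSI broth microdilution, with 5 × 10^5 CFU/mL bacteria exposed to peptide at final 0.78–50 µg/mL. Media were MH broth or LYM broth (pH 7.4), the latter also adjusted for salt (NaCl 50–300 mM, MgCl2 0.5–2.5 mM) or acidity (pH 4.5–6.5); triplicate independent experiments.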
# S. aureus ATCC 6538 = system: S. aureus ATCC 6538
# How it was run: as §2
# [1] = system: A. baumannii 14B0091 (Acinetobacter sp., BCRC number 14B0091)
# How it was run: as §2
# [2] = system: A. baumannii 14B0097 (Acinetobacter sp., BCRC number 14B0097)
# How it was run: as §2
# [3] = system: A. baumannii 14B00100 (Acinetobacter sp., BCRC number 14B0100)
# How it was run: as §2
# [4] = system: Escherichia coli (ATCC 25922)
# How it was run: as §2
# Gram-negative bacteria = assay: Geometric mean MIC and therapeutic index, Gram-negative bacteria; format: cell-based; details: Gram-negative bacteria
# How it was run: as §1
# [5] = MH broth, MIC >50 µg/mL counted as 100 µg/mL
# [6] = LYM broth, 0 mM NaCl, 16 h, 37 °C
# [7] = LYM broth, 50 mM NaCl, 16 h, 37 °C
# [8] = LYM broth, 100 mM NaCl, 16 h, 37 °C
# [9] = LYM broth, 200 mM (NaCl), 16 h, 37 °C
# [10] = LYM broth, 300 mM (NaCl), 16 h, 37 °C
# [11] = MH broth, 5 × 10^5 CFU/mL, 16 h, 37 °C, repeated three times
substance,measurement,setting,value
Ac-LAKKKKWRKWLKW-NH2 [Peptide W5K09],GM G+ (geometric mean of the MIC values),Gram-positive bacteria; [5],75.8 µg/mL
same,Therapeutic Index (TI) G+,Gram-positive bacteria; HC10/GM,1.4
same,MIC,S. aureus ATCC 25923; [6],3.13 µg/mL
same,MIC,"S. aureus ATCC 25923; LYM broth, 0.5 mM MgCl2",3.13 µg/mL
same,MIC,"S. aureus ATCC 25923; LYM broth, 1.5 mM MgCl2",6.25 µg/mL
same,MIC,"S. aureus ATCC 25923; LYM broth, 2.5 mM MgCl2",6.25 µg/mL
same,MIC,S. aureus ATCC 25923; [7],6.25 µg/mL
same,MIC,S. aureus ATCC 25923; [8],12.5 µg/mL
same,MIC,S. aureus ATCC 25923; [9],50 µg/mL
same,MIC,S. aureus ATCC 25923; [10],>50 µg/mL
same,MIC,"S. aureus ATCC 25923; LYM broth, pH 4.5",6.25 µg/mL
same,MIC,"S. aureus ATCC 25923; LYM broth, pH 5.5",3.13 µg/mL
same,MIC,"S. aureus ATCC 25923; LYM broth, pH 6.5",1.56 µg/mL
same,MIC,S. aureus ATCC 25923; [11],25 µg/mL
same,MIC,S. aureus ATCC 6538; [6],6.25 µg/mL
same,MIC,"S. aureus ATCC 6538; LYM broth, 0.5 mM MgCl2",3.13 µg/mL
same,MIC,"S. aureus ATCC 6538; LYM broth, 1.5 mM MgCl2",3.13 µg/mL
same,MIC,"S. aureus ATCC 6538; LYM broth, 2.5 mM MgCl2",3.13 µg/mL
same,MIC,S. aureus ATCC 6538; [7],6.25 µg/mL
same,MIC,S. aureus ATCC 6538; [8],12.5 µg/mL
same,MIC,S. aureus ATCC 6538; [9],12.5 µg/mL
same,MIC,S. aureus ATCC 6538; [10],50 µg/mL
same,MIC,"S. aureus ATCC 6538; LYM broth, pH 4.5",6.25 µg/mL
same,MIC,"S. aureus ATCC 6538; LYM broth, pH 5.5",3.13 µg/mL
same,MIC,"S. aureus ATCC 6538; LYM broth, pH 6.5",3.13 µg/mL
same,MIC,S. aureus ATCC 6538; [11],>50 µg/mL
same,MIC,[1]; [6],1.56 µg/mL
same,MIC,"[1]; LYM broth, 0.5 mM MgCl2",3.13 µg/mL
same,MIC,"[1]; LYM broth, 1.5 mM MgCl2",3.13 µg/mL
same,MIC,"[1]; LYM broth, 2.5 mM MgCl2",3.13 µg/mL
same,MIC,[1]; [7],6.25 µg/mL
same,MIC,[1]; [8],12.5 µg/mL
same,MIC,[1]; [9],50 µg/mL
same,MIC,[1]; [10],>50 µg/mL
same,MIC,"[1]; LYM broth, pH 4.5",6.25 µg/mL
same,MIC,"[1]; LYM broth, pH 5.5",3.13 µg/mL
same,MIC,"[1]; LYM broth, pH 6.5",1.56 µg/mL
same,MIC,[1]; [11],50 µg/mL
same,MIC,[2]; [6],3.13 µg/mL
same,MIC,"[2]; LYM broth, 0.5 mM MgCl2",3.13 µg/mL
same,MIC,"[2]; LYM broth, 1.5 mM MgCl2",3.13 µg/mL
same,MIC,"[2]; LYM broth, 2.5 mM MgCl2",3.13 µg/mL
same,MIC,[2]; [7],3.13 µg/mL
same,MIC,[2]; [8],12.5 µg/mL
same,MIC,[2]; [9],50 µg/mL
same,MIC,[2]; [10],>50 µg/mL
same,MIC,"[2]; LYM broth, pH 4.5",6.25 µg/mL
same,MIC,"[2]; LYM broth, pH 5.5",3.13 µg/mL
same,MIC,"[2]; LYM broth, pH 6.5",1.56 µg/mL
same,MIC,[2]; [11],25 µg/mL
same,MIC,[3]; [6],3.13 µg/mL
same,MIC,"[3]; LYM broth, 0.5 mM MgCl2",3.13 µg/mL
same,MIC,"[3]; LYM broth, 1.5 mM MgCl2",3.13 µg/mL
same,MIC,"[3]; LYM broth, 2.5 mM MgCl2",3.13 µg/mL
same,MIC,[3]; [7],3.13 µg/mL
same,MIC,[3]; [8],6.25 µg/mL
same,MIC,[3]; [9],25 µg/mL
same,MIC,[3]; [10],>50 µg/mL
same,MIC,"[3]; LYM broth, pH 4.5",3.13 µg/mL
same,MIC,"[3]; LYM broth, pH 5.5",1.56 µg/mL
same,MIC,"[3]; LYM broth, pH 6.5",1.56 µg/mL
same,MIC,[3]; [11],50 µg/mL
same,MIC,[4]; [6],6.25 µg/mL
same,MIC,"[4]; LYM broth, 0.5 mM MgCl2",6.25 µg/mL
same,MIC,"[4]; LYM broth, 1.5 mM MgCl2",12.5 µg/mL
same,MIC,"[4]; LYM broth, 2.5 mM MgCl2",12.5 µg/mL
same,MIC,[4]; [7],12.5 µg/mL
same,MIC,[4]; [8],25 µg/mL
same,MIC,[4]; [9],50 µg/mL
same,MIC,[4]; [10],>50 µg/mL
same,MIC,"[4]; LYM broth, pH 4.5",6.25 µg/mL
same,MIC,"[4]; LYM broth, pH 5.5",3.13 µg/mL
same,MIC,"[4]; LYM broth, pH 6.5",3.13 µg/mL
same,MIC,[4]; [11],25 µg/mL
same,GM G− (geometric mean of the MIC values),Gram-negative bacteria; [5],33.0 µg/mL
same,Therapeutic Index (TI) G−,Gram-negative bacteria; HC10/GM,3.3

# From article PMC12649549, “Sequence Permutation Generated Lysine and Tryptophan-Rich Antimicrobial Peptides with Enhanced Therapeutic Index” (Antibiotics, 2025)
